Carcinogen call and TD50 data for 8 molecules are collected here from PubChem BioAssay AID1745844 (Carcinogenic Potency Database (CPDB), 2022).

The test system of the series is rodent lifetime carcinogenesis bioassay, tumor incidence TD50. Briefly: chronic cancer bioassays in animals – CPDB, compiled studies (AID 1745844).
Setting [1] is: mouse, strain B6AKF1, females, oral dosing, site: lung, lesion: adenoma, dosed 76 weeks, study length 76 weeks.

SMILES strings stand for the structures. Calls of active or inactive are those of the source. How the calls were made is not given here.

Regarding `COP(=S)(OC)Oc1ccc([N+](=O)[O-])cc1`, the carcinogen call (mouse, strain B6C3F1, females, in feed, site: any site (literature study), lesion: several types, types named in the paper, dosed 102 weeks, study length 102 weeks) was “negative (inactive)”; the carcinogen call (mouse, strain B6C3F1, males, in feed, site: any site (literature study), lesion: several types, types named in the paper, dosed 102 weeks, study length 102 weeks) was “negative (inactive)”; the carcinogen call (rat, strain Fischer 344, females, in feed, site: any site (literature study), lesion: several types, types named in the paper, dosed 105 weeks, study length 105 weeks) was “negative (inactive)”; the carcinogen call (rat, strain Fischer 344, males, in feed, site: any site (literature study), lesion: several types, types named in the paper, dosed 105 weeks, study length 105 weeks) was “negative (inactive)”. Besides, the TD50 (mouse, strain B6C3F1, females, in feed, site: lung, lesion: alveolar/bronchiolar adenoma + alveolar/bronchiolar carcinoma, dosed 102 weeks, study length 102 weeks) stood at 125 mg/kg/day and the TD50 (mouse, strain B6C3F1, males, in feed, site: lung, lesion: alveolar/bronchiolar adenoma + alveolar/bronchiolar carcinoma, dosed 102 weeks, study length 102 weeks) came to 58.1 mg/kg/day.

Consider `CNCc1ccc(CSCCNC(=NCC(O)c2ccc(O)cc2)NS(C)(=O)=O)o1` (configuration not stated), for which the carcinogen call (rat, strain Jcl:SD, females, by gavage, site: liver, lesion: one or several types, types not named, dosed 52 weeks, study length 52 weeks) is “negative (inactive)”; the carcinogen call (rat, strain Jcl:SD, females, by gavage, site: liver, lesion: one or several types, types not named, dosed 52 weeks, study length 56 weeks) was “negative (inactive)”; the carcinogen call (rat, strain Jcl:SD, males, by gavage, site: liver, lesion: one or several types, types not named, dosed 52 weeks, study length 52 weeks) is “negative (inactive)”; the carcinogen call (rat, strain Jcl:SD, males, by gavage, site: liver, lesion: one or several types, types not named, dosed 52 weeks, study length 56 weeks) is “negative (inactive)”.

On to `Oc1c(Cl)cc(Cl)cc1Sc1cc(Cl)cc(Cl)c1O`, for which the carcinogen call is, setting by setting: (mouse, strain B6AKF1, females, oral dosing, site: liver, lesion: hepatoma, dosed 76 weeks, study length 76 weeks) “negative (inactive)”; under setting [1], “negative (inactive)”; (mouse, strain B6AKF1, males, oral dosing, site: any site (literature study), lesion: several types, types named in the paper, dosed 76 weeks, study length 76 weeks) “negative (inactive)”; (mouse, strain B6AKF1, males, oral dosing, site: liver, lesion: hepatoma, dosed 76 weeks, study length 76 weeks) “negative (inactive)”; (mouse, strain B6AKF1, males, oral dosing, site: lung, lesion: adenoma, dosed 76 weeks, study length 76 weeks) “negative (inactive)”; (mouse, strain B6C3F1, females, oral dosing, site: any site (literature study), lesion: one or several types, types not named, dosed 76 weeks, study length 76 weeks) “negative (inactive)”. For the same molecule, the carcinogen call is, setting by setting: (mouse, strain B6C3F1, females, oral dosing, site: liver, lesion: hepatoma, dosed 76 weeks, study length 76 weeks) “negative (inactive)”; (mouse, strain B6C3F1, females, oral dosing, site: lung, lesion: several types, types named in the paper, dosed 76 weeks, study length 76 weeks) “negative (inactive)”; (mouse, strain B6C3F1, males, oral dosing, site: lung, lesion: several types, types named in the paper, dosed 76 weeks, study length 76 weeks) “negative (inactive)”. Also, the TD50 reads like this: under setting [1], 100 mg/kg/day; (mouse, strain B6C3F1, females, oral dosing, site: any site (literature study), lesion: several types, types named in the paper, dosed 76 weeks, study length 76 weeks) 43 mg/kg/day; (mouse, strain B6C3F1, males, oral dosing, site: liver, lesion: angioma, dosed 76 weeks, study length 76 weeks) 88.2 mg/kg/day; (mouse, strain B6C3F1, males, oral dosing, site: liver, lesion: several types, types named in the paper, dosed 76 weeks, study length 76 weeks) 2.28 mg/kg/day (inactive); (mouse, strain B6C3F1, males, oral dosing, site: lung, lesion: adenoma, dosed 76 weeks, study length 76 weeks) 88.2 mg/kg/day.

On to `CN(C)CCN(Cc1cccs1)c1ccccc1`, for which the carcinogen call was “negative (inactive)” (rat, strain Fischer 344, females, in drinking water, site: liver, lesion: several types, types named in the paper, dosed 82 weeks, study length 130 weeks); “negative (inactive)” (rat, strain Fischer 344, males, in drinking water, site: liver, lesion: several types, types named in the paper, dosed 82 weeks, study length 130 weeks); “negative (inactive)” (rat, strain Fischer 344, males, in drinking water, site: thyroid follicle, lesion: several types, types named in the paper, dosed 82 weeks, study length 130 weeks). Where the note is “rat, strain Fischer 344, females, in drinking water, site: thyroid follicle, lesion: several types, types named in the paper, dosed 82 weeks, study length 130 weeks”, the TD50 is 487 mg/kg/day (inactive).

For `CCOc1nc2cccc(C(=O)OC(C)OC(=O)OC3CCCCC3)c2n1Cc1ccc(-c2ccccc2-c2nn[nH]n2)cc1` (configuration not stated), where the note is “rat, strain Fischer 344/Jcl, females, in feed, site: any site (literature study), lesion: several types, types named in the paper, dosed 104 weeks, study length 104 weeks”, the TD50 is 11200 mg/kg/day (inactive). Also, the carcinogen call was “negative (inactive)” (rat, strain Fischer 344/Jcl, females, in feed, site: liver, lesion: hepatocellular adenoma, dosed 104 weeks, study length 104 weeks); “negative (inactive)” (rat, strain Fischer 344/Jcl, males, in feed, site: any site (literature study), lesion: several types, types named in the paper, dosed 104 weeks, study length 104 weeks); “negative (inactive)” (rat, strain Fischer 344/Jcl, males, in feed, site: liver, lesion: hepatocellular adenoma, dosed 104 weeks, study length 104 weeks).

For `CCNN`, the TD50 is 42.9 mg/kg/day (mouse, strain Swiss albino, females, in drinking water, site: blood vessels, lesion: angioma, dosed 82 weeks, study length 82 weeks); 27.6 mg/kg/day (mouse, strain Swiss albino, females, in drinking water, site: blood vessels, lesion: angiosarcoma, dosed 82 weeks, study length 82 weeks); 11.6 mg/kg/day (mouse, strain Swiss albino, females, in drinking water, site: blood vessels, lesion: several types, types named in the paper, dosed 82 weeks, study length 82 weeks); 42.9 mg/kg/day (mouse, strain Swiss albino, females, in drinking water, site: liver, lesion: angioma, dosed 82 weeks, study length 82 weeks); 27.6 mg/kg/day (mouse, strain Swiss albino, females, in drinking water, site: liver, lesion: angiosarcoma, dosed 82 weeks, study length 82 weeks); 13 mg/kg/day (mouse, strain Swiss albino, females, in drinking water, site: liver, lesion: several types, types named in the paper, dosed 82 weeks, study length 82 weeks). The TD50 (mouse, strain Swiss albino, females, in drinking water, site: lung, lesion: adenocarcinoma, dosed 82 weeks, study length 82 weeks) was 14 mg/kg/day; the TD50 (mouse, strain Swiss albino, females, in drinking water, site: lung, lesion: adenoma, dosed 82 weeks, study length 82 weeks) came out at 5.62 mg/kg/day; the TD50 (mouse, strain Swiss albino, females, in drinking water, site: lung, lesion: several types, types named in the paper, dosed 82 weeks, study length 82 weeks) was 5.22 mg/kg/day; the TD50 (mouse, strain Swiss albino, males, in drinking water, site: blood vessels, lesion: angiosarcoma, dosed 72 weeks, study length 72 weeks) came to 46.9 mg/kg/day; the TD50 (mouse, strain Swiss albino, males, in drinking water, site: blood vessels, lesion: several types, types named in the paper, dosed 72 weeks, study length 72 weeks) was 38.6 mg/kg/day; the TD50 (mouse, strain Swiss albino, males, in drinking water, site: liver, lesion: angiosarcoma, dosed 72 weeks, study length 72 weeks) worked out at 46.9 mg/kg/day. For the same molecule, the TD50 was 48.1 mg/kg/day (mouse, strain Swiss albino, males, in drinking water, site: liver, lesion: several types, types named in the paper, dosed 72 weeks, study length 72 weeks); 7.82 mg/kg/day (mouse, strain Swiss albino, males, in drinking water, site: lung, lesion: adenoma, dosed 72 weeks, study length 72 weeks); 8.81 mg/kg/day (mouse, strain Swiss albino, males, in drinking water, site: lung, lesion: several types, types named in the paper, dosed 72 weeks, study length 72 weeks).

Turning to `CCCCCCCCCCCN(C)N=O`, the TD50 is, setting by setting: (rat, strain Fischer 344, males, by gavage, site: esophagus, lesion: squamous-cell carcinoma, dosed 30 weeks, study length 65 weeks) 15.4 mg/kg/day; (rat, strain Fischer 344, males, by gavage, site: liver, lesion: cholangiocarcinoma, dosed 30 weeks, study length 65 weeks) 3.18 mg/kg/day; (rat, strain Fischer 344, males, by gavage, site: liver, lesion: hepatocellular carcinoma, dosed 30 weeks, study length 65 weeks) 2.38 mg/kg/day; (rat, strain Fischer 344, males, by gavage, site: lung, lesion: alveolar adenoma, dosed 30 weeks, study length 65 weeks) 2.41 mg/kg/day; (rat, strain Fischer 344, males, by gavage, site: lung, lesion: alveolar-cell adenoma, dosed 30 weeks, study length 65 weeks) 4.99 mg/kg/day; (rat, strain Fischer 344, males, by gavage, site: lung, lesion: squamous-cell carcinoma, dosed 30 weeks, study length 65 weeks) 2.37 mg/kg/day. This molecule also had a TD50 (rat, strain Fischer 344, males, by gavage, site: stomach, nonglandular, lesion: papilloma, dosed 30 weeks, study length 65 weeks) of 15.4 mg/kg/day.

Turning to `O.O=S(=O)(O)O.[Cd]`, where the note is “mouse, strain Swiss, males, by gavage, site: liver, lesion: several types, types named in the paper, dosed 78 weeks, study length 78 weeks”, the carcinogen call was “negative (inactive)”. For the same molecule, the TD50 runs as follows: (mouse, strain Swiss, males, by gavage, site: lung, lesion: several types, types named in the paper, dosed 78 weeks, study length 78 weeks) 1.78 mg/kg/day (inactive); (rat, strain C.B. hooded, males, by gavage, site: liver, lesion: liver-cell adenoma, dosed 104 weeks, study length 114 weeks) 1.17 mg/kg/day (inactive).

As usually defined, the TD50 is the dose at which the toxic effect under study appears in half of the subjects.
